Data published in publication PMC6057649, “Development of NanoLuc-PEST expressing Leishmania mexicana as a new drug discovery tool for axenic- and intramacrophage-based assays” (PLoS Neglected Tropical Diseases, 2018).

Test system: NanoLuc-PEST expressing L. mexicana axenic amastigotes
Assay: microbe, parasite or virus in culture
Assay type: cell-based
Settings: 72 hours, relative to DMSO only control, n = 4; for viability at 2 µM / viability at 10 µM: Leishmania mexicana, read-out: Relative Bioluminescence (%)

## C[C@H](C(N)=O)N1CCCC[C@H]1c1ccc(OCc2cccc(F)c2)cc1 [MMV676269]
2 µM compound
  Relative Bioluminescence (%): 85.78%
10 µM compound
  Relative Bioluminescence (%): 76.17%

## COc1ccc2nc(C)cc(OCC(=O)Nc3ccccc3OC)c2c1 [MMV687188]
2 µM compound
  Relative Bioluminescence (%): 75.17%
10 µM compound
  Relative Bioluminescence (%): 98.10%

## CCc1ccccc1-n1c(C)cn2c3c(=O)n(C(C(=O)OC)C(C)C)c(=O)n(C)c3nc12 (stereo not drawn) [MMV688550]
2 µM compound
  Relative Bioluminescence (%): 66.32%
10 µM compound
  Relative Bioluminescence (%): 56.13%

## Cc1nn(C(=O)Nc2cccc(C(F)(F)F)c2)c(C)c1Sc1ncccn1 [MMV688552]
2 µM compound
  Relative Bioluminescence (%): 71.00%
10 µM compound
  Relative Bioluminescence (%): 47.85%

## CCc1ccc(S(=O)(=O)Nc2cc(CN3CCN(CCC(C)C)CC3)ccc2C)cc1 [MMV688124]
2 µM compound
  Relative Bioluminescence (%): 85.13%
10 µM compound
  Relative Bioluminescence (%): 56.21%

## CCCS(=O)(=O)N1CCC(CO)(Cc2ccccc2C(F)(F)F)CC1 [MMV001059]
2 µM compound
  Relative Bioluminescence (%): 109.79%
10 µM compound
  Relative Bioluminescence (%): 96.75%

## CC(=O)Oc1ccccc1C(=O)Nc1ncc([N+](=O)[O-])s1 [MMV688991, Nitazoxanide, reference compound]
2 µM compound
  viability at 2 µM: 71.1%
10 µM compound
  viability at 10 µM: 0.38%

## O=C(C1CCN(c2nnc(-n3cccc3)s2)CC1)N1CCC(Cc2ccccc2)CC1 [MMV676478]
2 µM compound
  Relative Bioluminescence (%): 93.56%
10 µM compound
  Relative Bioluminescence (%): 56.18%

## NC(N)=Nc1ccc(-c2ccc(-c3ccc(N=C(N)N)cc3Cl)o2)c(Cl)c1 [MMV688179]
2 µM compound
  Relative Bioluminescence (%): 105.96%
10 µM compound
  Relative Bioluminescence (%): 54.50%

## CCN(CC)S(=O)(=O)c1ccc(Cl)c(C(=O)Nc2ccc3nc(C)sc3c2)c1 [MMV019721]
2 µM compound
  Relative Bioluminescence (%): 65.53%
10 µM compound
  Relative Bioluminescence (%): 69.43%

## COc1cc(NC(C)CCCN)c2ncccc2c1 (stereo not drawn) [MMV000023, Primaquine, reference compound]
2 µM compound
  viability at 2 µM: 55%
10 µM compound
  viability at 10 µM: 76.8%

## CC[C@@H](CO)NCCN[C@@H](CC)CO [MMV687801, Ethambutol, reference compound]
2 µM compound
  viability at 2 µM: 98.6%
10 µM compound
  viability at 10 µM: 127%

## COc1cc2ncnc(NC3CCN(Cc4ccccc4)CC3)c2cc1OC [MMV006741]
2 µM compound
  Relative Bioluminescence (%): 83.56%
10 µM compound
  Relative Bioluminescence (%): 113.49%

## CNC(=O)c1nn(C)c2c1C(C)(C)Cc1cnc(Nc3ccc(N4CCN(C)CC4)cc3)nc1-2 [MMV676602]
2 µM compound
  Relative Bioluminescence (%): 91.95%
10 µM compound
  Relative Bioluminescence (%): 77.62%

## O=C([C@@H](c1ccc(Cl)cc1)c1cccnc1)N1CCN(c2ccc(C(F)(F)F)cc2)CC1 [MMV689244]
2 µM compound
  Relative Bioluminescence (%): 23.97%
10 µM compound
  Relative Bioluminescence (%): 0.66%
